In ChEMBL document CHEMBL6103622 (J Med Chem, 2025):
Active and inactive are the calls of the source. The rule behind the calls is not given here.

Columns and labels:
[1] = target: Macrophage colony-stimulating factor 1 receptor (Homo sapiens, UniProt P07333); assay: Binding affinity to recombinant CSF-1R (unknown origin) assessed as dissociation rate constant by SPR analysis
[2] = target: T1, Macrophage colony-stimulating factor 1 receptor (Mus musculus) (UniProt P09581); assay: Inhibition of CSF-1R signaling pathway activation in female C57BL/6 mouse BMDM cells assessed as reduction in CSF-1R phosphorylation at Tyr723 residue at 100 nM preincubated with compounds for 4 hrs followed by M-CSF stimulation and measured after 30 mins by Western blot analysis; type: cell-based; details: time 4.5 hrs
T1 sequence (whole entry): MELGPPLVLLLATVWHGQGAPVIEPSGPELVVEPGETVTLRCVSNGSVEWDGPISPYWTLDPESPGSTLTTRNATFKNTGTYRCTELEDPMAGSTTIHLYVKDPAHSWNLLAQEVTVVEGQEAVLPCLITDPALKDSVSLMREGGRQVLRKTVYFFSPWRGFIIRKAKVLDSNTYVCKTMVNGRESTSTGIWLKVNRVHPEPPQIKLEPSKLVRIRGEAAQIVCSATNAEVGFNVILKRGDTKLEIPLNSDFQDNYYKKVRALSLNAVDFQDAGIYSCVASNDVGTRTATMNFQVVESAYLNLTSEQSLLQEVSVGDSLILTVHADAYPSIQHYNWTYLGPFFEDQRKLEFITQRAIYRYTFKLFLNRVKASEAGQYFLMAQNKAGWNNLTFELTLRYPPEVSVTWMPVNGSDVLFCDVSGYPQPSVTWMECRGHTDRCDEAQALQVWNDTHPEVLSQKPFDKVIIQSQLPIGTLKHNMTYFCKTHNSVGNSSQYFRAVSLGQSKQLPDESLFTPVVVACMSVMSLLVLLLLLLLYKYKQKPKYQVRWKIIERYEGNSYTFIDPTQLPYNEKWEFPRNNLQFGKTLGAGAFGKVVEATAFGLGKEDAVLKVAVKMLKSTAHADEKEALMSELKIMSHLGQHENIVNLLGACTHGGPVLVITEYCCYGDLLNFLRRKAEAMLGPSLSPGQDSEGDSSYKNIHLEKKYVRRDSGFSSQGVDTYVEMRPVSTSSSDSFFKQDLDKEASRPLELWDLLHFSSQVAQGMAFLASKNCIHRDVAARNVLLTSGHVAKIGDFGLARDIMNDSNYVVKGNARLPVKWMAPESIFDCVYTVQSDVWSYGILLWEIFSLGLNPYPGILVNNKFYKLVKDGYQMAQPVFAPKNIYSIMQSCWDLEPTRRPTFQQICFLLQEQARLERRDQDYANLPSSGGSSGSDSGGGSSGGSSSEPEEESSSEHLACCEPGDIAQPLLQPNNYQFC

[3] = Clearance in Sprague-Dawley rat at 1 mg/kg, iv; type: ADME, organism-based; details: in vivo
MC-38 = assay: Antitumor activity against mouse MC38 cells allografted in C57BL/6 mouse model assessed as downregulation of Mrc1 mRNA expression in tumor at 10 to 20 mg/kg, ip administered once daily for 14 days by qPCR analysis; type: functional, organism-based; details: dose 10-20 mg/kg, time 14.0 day

Macrophage colony-stimulating factor 1 receptor, sequence (P07333 whole entry): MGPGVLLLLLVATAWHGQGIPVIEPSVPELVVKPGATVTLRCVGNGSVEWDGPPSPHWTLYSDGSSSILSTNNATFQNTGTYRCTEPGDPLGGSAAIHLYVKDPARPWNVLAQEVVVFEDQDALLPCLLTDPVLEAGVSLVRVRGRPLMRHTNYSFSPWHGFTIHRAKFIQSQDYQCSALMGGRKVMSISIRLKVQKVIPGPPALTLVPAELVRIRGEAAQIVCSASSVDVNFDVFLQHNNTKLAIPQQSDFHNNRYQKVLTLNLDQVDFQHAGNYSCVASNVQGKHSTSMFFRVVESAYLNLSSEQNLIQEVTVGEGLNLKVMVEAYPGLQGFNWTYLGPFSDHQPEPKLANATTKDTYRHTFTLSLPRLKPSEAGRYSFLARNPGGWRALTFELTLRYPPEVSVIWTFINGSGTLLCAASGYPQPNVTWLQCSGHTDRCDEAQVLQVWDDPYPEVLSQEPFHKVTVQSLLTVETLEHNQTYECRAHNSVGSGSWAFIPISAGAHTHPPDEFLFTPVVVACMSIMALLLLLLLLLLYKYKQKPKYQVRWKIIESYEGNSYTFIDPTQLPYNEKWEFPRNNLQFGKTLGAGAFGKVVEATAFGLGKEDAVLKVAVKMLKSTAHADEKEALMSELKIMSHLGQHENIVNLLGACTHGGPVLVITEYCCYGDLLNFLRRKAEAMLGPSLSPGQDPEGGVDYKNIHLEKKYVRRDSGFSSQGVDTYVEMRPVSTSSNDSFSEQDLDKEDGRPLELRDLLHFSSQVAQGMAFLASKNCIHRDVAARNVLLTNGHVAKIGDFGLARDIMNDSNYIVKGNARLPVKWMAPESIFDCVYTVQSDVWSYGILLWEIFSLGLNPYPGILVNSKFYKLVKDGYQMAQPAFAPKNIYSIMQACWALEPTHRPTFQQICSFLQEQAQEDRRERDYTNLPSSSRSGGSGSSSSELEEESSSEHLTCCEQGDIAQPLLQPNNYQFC

- koff [1]: 0.00315 s⁻¹
- inhibition [2]: Active
- clearance [3]: 31.9 mL/min/kg
SMILES: Cc1nc(NC(=O)N[C@@H]2CCCC[C@H]2O)ccc1Oc1c[nH]c2ncc(Cl)cc12
- Activity (MC-38): Active
